# Test results: patent US8501424B2, “Cd4+ epitopes of bone morphogenetic proteins” (Danisco US Inc., priority 2003, dated 2013)
# B1: BMP-7: human BMP-7 (GenBank Accession No. P18075), tested as 15-mer peptide set (protein, UniProt P18075 293-431, looked up)
# Bone morphogenetic protein 7: STGSKQRSQNRSKTPKNQEALRMANVAENSSSDQRQACKKHELYVSFRDLGWQDWIIAPEGYAAYYCEGECAFPLNSYMNATNHAIVQTLVHFINPETVPKPCCAPTQLNAISVLYFDDSSNVILKKYRNMVVRACGCH
# modifications: tested as overlapping 15-mer peptides
# B2: BMP-14: human BMP-14 (GenBank Accession No. P43026), tested as 15-mer peptide set (protein, UniProt P43026 382-501, looked up)
# Growth/differentiation factor …: APLATRQGKRPSKNLKARCSRKALHVNFKDMGWDDWIIAPLEYEAFHCEGLCEFPLRSHLEPTNHAVIQTLMNSMDPESTPPTCCVPTRLSPISILFIDSANNVVYKQYEDMVVESCGCR
# modifications: tested as overlapping 15-mer peptides
# Assays:
# [1] = test system: HLA Class II antigens at DRB1 and DQB1; experiment: HLA associations of proliferative responses to epitope peptides; assay type: cell-based, human; details: for relative risk (RR): 83 donors
# Protocol: In addition to the above analyses, the HLA associations with BMP-7 and BMP-14 epitope peptides were determined. In these experiments, the proliferative response data to five epitope peptides (#3, #7, #8, #16 and #31) were tested in 83 donors for which the expression of HLA Class II antigens at DRB1 and DQB1 was also tested. For four of the peptides, the reaction was assessed by two methods (i.e., “QC” and “non-QC,” “[nQC”] as described above). The statistically significant associations found by both methods were as follows. For epitope #3 and DR11, the relative risk (RR) was 6.25; p<0.0005 [QC], RR=4.17 p<0.005 [nQC]. For epitope #3 and DQ2, the RR was 0.17 p<0.04 [QC], RR=0.13 p<0.01 [nQC]. For epitope #3 and DQ9, the RR was 6.67 p<0.003 [QC]; RR=4.85 p<0.013 [nQC]. For epitope #8 and DR11, the RR was 6.6 p<0.0003. For epitope #31 and DR7, the RR was 8.32 p<0.001 [QC]; RR=4.44 p<0.002 [nQC].
# In addition the average stimulation index (SI) was higher among DR11+ than among DR11− donors for peptide #3 (QC) (5.8 fold, p<0.0004) and peptide #8 (2.3 fold p<0.007). Also the average SI was higher among DR7+ than among DR7− donors for peptide #31 (QC) (2.7 fold p<0.0007).
# CD4+ T-cells = experiment: I-MUNE T-cell proliferation assay (dendritic cells + autologous CD4+ T-cells + 15-mer peptides, tritiated thymidine); assay type: cell-based, human; parameters: key to epitope designation: major: response rate within the tested donor pool is at least three standard deviations above the mean background response rate; moderate: response rate within the tested donor pool is at least two standard deviations above the mean or three times the background; minor: response rate within the tested donor pool is at least twice the background; details: 83 donors; for structure value: 15-mer peptide sets, 5 μg/ml, positive response SI >= 2.95, analysis method (QC/non-QC) not stated at place
# From the text: Full length amino acid sequences of human BMP-7 (GenBank Accession No. P18075) and BMP-14 (GenBank Accession No. P43026) precursor proteins were used to create 15-mer peptide sets. These variant peptides were synthesized by Mimotopes, using the multi-pin synthesis technique known in the art (See e.g., Maeji et al., J. Immunol. Meth., 134:23-33 [1990]). The 15-mer peptides were created such that sequences with adjacent peptides shared 12 amino acids (i.e., each peptide was offset by three amino acids). Peptides were diluted with DMSO to provide a stock concentration of approximately 2 mg/ml. The final concentration of peptides used in each assay was 5 μg/ml.
# Fresh human peripheral blood cells were collected from 83 community donors. These cells were tested to determine antigenic epitopes in BMP-7 and BMP-14, as described in Example 3, below.
# Peripheral mononuclear blood cells (PBMCs) (stored at room temperature, no older than 24 hours) were prepared for use as follows. PBMCs were isolated from buffy coat material by centrifuging over an underlay of LYMPHOPREP™ at 1000×g for 30 minutes. The interface layer was collected and washed and counted using the CELL-DYN® 3700 System (Abbott). Then, suspensions containing 10^8 PBMCs resuspended in 30 ml of AIM-V (Invitrogen) were prepared and the cells were allowed to adhere to plastic T-75 culture flasks for two hours. The remainder of the cells were frozen at 5×10^7 cells/ml in 90% FCS (Gibco/BRL) and 10% DMSO (Sigma).
# After the two hour PBMC incubation period, non-adherent cells were removed from the culture flasks. The adherent cells were cultured in the flasks with 800 units/ml recombinant human GM-CSF (Endogen) and 100 units/ml recombinant human IL4 (Endogen) at 37° C., 5% CO2. On day 5 of incubation, 50 units/ml recombinant human Il-1α (Endogen) and 0.2 units/ml recombinant human TNF-α were added to the cultures. Adherent and non-adherent dendritic cells were harvested, washed, and counted on day 7, following a one-hour treatment with […] mitomycin C (Sigma) and 10 mM EDTA.
# Autologous CD4+ T-cells were prepared from frozen aliquots of PBMCs. After thawing and washing in DPBS, CD4+ T-cells were isolated using a commercially available CD4 negative selection kit (Dynal), according to the manufacturer's instructions. Cells were counted using the Abbott CELL-DYN® 3700 System. The purity obtained using these methods was generally found to be greater than 90%.
# This Example describes the assay system used in the present invention. This test system is also referred to as the “I-MUNE®” assay system. In 96-well, round bottom plates, autologous dendritic cells and CD4+ T-cells were combined with test peptides. More specifically, in a volume of 100 μl/well, 2×10^4 dendritic cells in AIM V were combined with individual peptides (at a final peptide concentration of 5 μg/ml and a final DMSO concentration of 0.25%). After a one-hour incubation at 37° C., 5% CO2, 2×10^5 CD4+ T-cells were added to the culture for a total volume of 200 μl. Negative control wells contained dendritic cells, CD4+ T-cells and 0.25% DMSO. Positive control wells contained dendritic cells, CD4+ T-cells (at the same concentrations as the test wells) and 0.25% DMSO with 0.4 μg/ml tetanus toxoid (List). Individual peptides were tested in duplicate for each donor.
# After 5 days of incubation at 37° C., 5% CO2, the cultures were pulsed with 0.25 μCi/well tritiated thymidine (Perkin Elmer). After a subsequent 24 hours of incubation, plates were harvested and assessed for incorporation of the tritiated thymidine (i.e., T-cell proliferation) using a Wallac MICROBETA® TriLux liquid scintillation counter (Perkin Elmer).
# For each individual buffy coat sample, the average CPM values for all of the peptides were analyzed. The average CPM values for each peptide were divided by the average CPM value for the control (DMSO only) wells to determine the “stimulation index” (SI). […]
# [2] = patients treated for spinal problems; cited from earlier work
molecule,measurement,setting,value
RSQNRSKTPKNQEAL (BMP-7 epitope) [Peptide 3],relative risk (RR),"[1]; DQ2, QC, p<0.04",0.17
same,relative risk (RR),"[1]; DQ2, nQC, p<0.01",0.13
same,relative risk (RR),"[1]; DQ9, QC, p<0.003",6.67
same,relative risk (RR),"[1]; DQ9, nQC, p<0.013",4.85
same,relative risk (RR),"[1]; DR11, QC, p<0.0005",6.25
same,relative risk (RR),"[1]; DR11, nQC, p<0.005",4.17
same,average stimulation index (SI) higher among DR11+ than among DR11− donors,"[1]; QC, p<0.0004",5.8 fold
RMANVAENSSSDQRQ (BMP-7 epitope) [Peptide 8],relative risk (RR),"[1]; DR11, method not stated, p<0.0003",6.6
same,average stimulation index (SI) higher among DR11+ than among DR11− donors,"[1]; method not stated, p<0.007",2.3 fold
SNVILKKYRNMVVRA (BMP-7 epitope) [Peptide 41],epitope designation,CD4+ T-cells,minor
same,"statistical significance of peptide response (Poisson, cut-off p<0.05)",CD4+ T-cells; QC method,did not reach the p<0.05 cut-off
SHLEPTNHAVIQTLM (BMP-14 epitope) [Peptide 20],epitope designation,CD4+ T-cells,minor
same,"statistical significance of peptide response (Poisson, cut-off p<0.05)",CD4+ T-cells; QC method,did not reach the p<0.05 cut-off
SPISILFIDSANNVV (BMP-14 epitope) [Peptide 31],relative risk (RR),"[1]; DR7, QC, p<0.001",8.32
same,relative risk (RR),"[1]; DR7, nQC, p<0.002",4.44
same,average SI higher among DR7+ than among DR7− donors,"[1]; QC, p<0.0007",2.7 fold
PLRSHLEPTNHAVIQ (BMP-14 epitope) [Peptide 19],epitope designation,CD4+ T-cells,minor
same,"statistical significance of peptide response (Poisson, cut-off p<0.05)",CD4+ T-cells; QC method,did not reach the p<0.05 cut-off
B1,structure value,CD4+ T-cells,0.70
same,relative immunogenicity by structure values,CD4+ T-cells; QC method,more immunogenic than BMP-14
same,relative immunogenicity,CD4+ T-cells; non-QC method,more immunogenic than the BMP-14 protein
same,treated patients who developed detectable anti-BMP antibodies,[2],38%
B2,structure value,CD4+ T-cells,0.57
